“And” between values parts separate entries of the source, which are not always exact repeats. Equal values may be shown once. Read-outs that look alike come from different tables or passages of the source.
How the values were obtained:
Type in all cases: cell-based
[1] = tested on: A. calcoaceticus
[2] = tested on: E. cloacae
[3] = tested on: E. faecalis; details: for MIC, Peptide: unmodified parent peptide
[4] = tested on: E. faecium; details: for Peptide MIC values: agarose dilution
[5] = tested on: H. influenzae; experiment: Agarose dilution assay (MIC)
[6] = tested on: K. pneumoniae
[7] = tested on: P. aeruginosa; details: for Peptide MIC values: agarose dilution
[8] = tested on: S. aureus; details: for Peptide MIC values: agarose dilution; for MIC, Peptide: unmodified parent peptide
[9] = tested on: S. pneumoniae; experiment: Agarose dilution assay (MIC); details: for Peptide MIC values: agarose dilution
[10] = tested on: microorganisms with acquired resistance; experiment: microbe, parasite or virus in culture; details: for Peptide MIC: combination with Mupirocin, in µg/mL
[11] = tested on: inherently resistant microorganisms; experiment: microbe, parasite or virus in culture
[12] = S. maltophilia 2, Piperacillin section
[13] = peptide + Piperacillin, S. maltophilia 2

Q: Which results are given for ILKKWPWWPWRRK [MBI 11CN]?
A: MIC ([1]; A. calcoaceticus AC001): 128 µg/mL; MIC ([2]; E. cloacae ECL007): >64 µg/mL; MIC ([3]; E. faecalis EFS001): 32 µg/mL; MIC ([4]; E. faecium EFM001): 8 µg/mL; Peptide MIC values [4]: 8 µg/mL; MIC ([5]; H. influenzae HIN001): >128 µg/mL; MIC ([6]; K. pneumoniae KP002): 128 µg/mL; MIC ([7]; P. aeruginosa PA003): >128 µg/mL; Peptide MIC values ([7]; P. aeruginosa ATCC 27853): >128 µg/mL; Peptide MIC values ([7]; P. aeruginosa NCTC 10662): >128 µg/mL; MIC ([8]; S. aureus SA003): 2 µg/mL; Peptide MIC values ([8]; S. aureus MRSA9): 2 µg/mL; Peptide MIC values ([8]; S. aureus MRSA13): 16 µg/mL; Peptide MIC values ([8]; S. aureus MRSA17): 4 µg/mL; MIC ([9]; S. pneumoniae SBSPN2): >128 µg/mL; Peptide MIC values ([9]; S. pneumoniae 406LE8): >128 µg/mL; Peptide MIC values ([9]; S. pneumoniae 60120): >128 µg/mL; Peptide MIC values ([9]; S. pneumoniae ATCC 49619): 64 µg/mL; Peptide MIC + Tobramycin ([10]; A. baumannii ABI001): 16 µg/mL; Tobramycin MIC + Peptide ([10]; A. baumannii ABI001): 4 µg/mL; Peptide MIC Alone ([10]; A. baumannii ABI001, Tobramycin section): 64 µg/mL; Peptide MIC + Piperacillin ([10]; A. calcoaceticus 3): 32 µg/mL; Piperacillin MIC + Peptide ([10]; A. calcoaceticus 3): 16 µg/mL; Peptide MIC Alone ([10]; A. calcoaceticus 3, Piperacillin section): 64 µg/mL; Peptide MIC + Tobramycin ([10]; E. coli EC0006): 0.25 µg/mL; Tobramycin MIC + Peptide ([10]; E. coli EC0006): 4 µg/mL; Peptide MIC Alone ([10]; E. coli EC0006, Tobramycin section): 8 µg/mL; Peptide MIC ([10]; E. faecium): 8; Peptide MIC + Piperacillin ([10]; P. aeruginosa 22): 32 µg/mL; Piperacillin MIC + Peptide ([10]; P. aeruginosa 22): 4 µg/mL; Peptide MIC Alone ([10]; P. aeruginosa 22, Piperacillin section): 64 µg/mL; Peptide MIC + Piperacillin ([10]; P. aeruginosa 23): 4 µg/mL; Piperacillin MIC + Peptide ([10]; P. aeruginosa 23): 64 µg/mL; Peptide MIC Alone ([10]; P. aeruginosa 23, Piperacillin section): 128 µg/mL; Peptide MIC + Tobramycin ([10]; P. aeruginosa PA032): 64 µg/mL; Tobramycin MIC + Peptide ([10]; P. aeruginosa PA032): 4 µg/mL; Peptide MIC Alone ([10]; P. aeruginosa PA032, Tobramycin section): >128 µg/mL; Peptide MIC ([10]; S. aureus): 16; Peptide MIC + Piperacillin ([10]; S. maltophilia 2): 32 µg/mL; Piperacillin MIC + Peptide ([10]; S. maltophilia 2): 16 µg/mL; Peptide MIC Alone [10, 12]: 64 µg/mL; Peptide MIC + Tobramycin ([10]; S. maltophilia SMA029): 64 µg/mL; Tobramycin MIC + Peptide ([10]; S. maltophilia SMA029): 2 µg/mL; Peptide MIC Alone ([10]; S. maltophilia SMA029, Tobramycin section): >128 µg/mL; Peptide MIC + Tobramycin ([10]; S. maltophilia SMA030): 64 µg/mL; Tobramycin MIC + Peptide ([10]; S. maltophilia SMA030): 2 µg/mL; Peptide MIC Alone ([10]; S. maltophilia SMA030, Tobramycin section): >128 µg/mL; FIC ([10]; peptide + Piperacillin, A. calcoaceticus 3): 1.00; FIC ([10]; peptide + Piperacillin, P. aeruginosa 22): 0.52; FIC ([10]; peptide + Piperacillin, P. aeruginosa 23): 0.53; FIC [10, 13]: 0.75; FIC ([10]; peptide + Tobramycin, A. baumannii ABI001): 0.50; FIC ([10]; peptide + Tobramycin, E. coli EC0006): 0.53; FIC ([10]; peptide + Tobramycin, P. aeruginosa PA032): 0.50; FIC ([10]; peptide + Tobramycin, S. maltophilia SMA029): 0.27; FIC ([10]; peptide + Tobramycin, S. maltophilia SMA030): 0.27

Q: ILKKFPFFPFRRK [MBI 11A1CN] was tested. Which MIC ([1]; A. calcoaceticus AC002) did it give?
A: 16 µg/mL

Q: And the MIC ([2]; E. cloacae ECL007)?
A: >128 µg/mL

Q: And the MIC ([3]; E. faecalis EFS002)?
A: 32 µg/mL

Q: And the MIC ([4]; E. faecium EFM002)?
A: 1 µg/mL

Q: What about the “Peptide MIC values” [4] of the same sequence?
A: 128 µg/mL

Q: And the MIC ([5]; H. influenzae HIN002)?
A: >128 µg/mL

Q: What about the MIC ([6]; K. pneumoniae KP002) of the same sequence?
A: >128 µg/mL

Q: And the MIC ([7]; P. aeruginosa PA004)?
A: >128 µg/mL

Q: And the “Peptide MIC values” ([7]; P. aeruginosa ATCC 27853)?
A: >128 µg/mL

Q: And the “Peptide MIC values” ([7]; P. aeruginosa NCTC 10662)?
A: >128 µg/mL

Q: What about the MIC ([8]; S. aureus SA005) of the same sequence?
A: 8 µg/mL

Q: What about the “Peptide MIC values” ([8]; S. aureus ATCC 29213) of the same sequence?
A: 2 µg/mL

Q: What about the “Peptide MIC values” ([8]; S. aureus MRSA9) of the same sequence?
A: 8 µg/mL

Q: What about the “Peptide MIC values” ([8]; S. aureus MRSA13) of the same sequence?
A: >128 µg/mL

Q: What about the “Peptide MIC values” ([8]; S. aureus MRSA17) of the same sequence?
A: 32 µg/mL

Q: And the “Peptide MIC values” ([8]; S. aureus SA206)?
A: 128 µg/mL

Q: What about the MIC ([9]; S. pneumoniae SBSPN2) of the same sequence?
A: >128 µg/mL

Q: And the “Peptide MIC values” ([9]; S. pneumoniae 406LE8)?
A: >128 µg/mL

Q: And the “Peptide MIC values” ([9]; S. pneumoniae 60120)?
A: >128 µg/mL

Q: What about the “Peptide MIC values” ([9]; S. pneumoniae ATCC 49619) of the same sequence?
A: >128 µg/mL

Q: What about the “Peptide MIC + Tobramycin” value ([11]; S. haemolyticus) of the same sequence?
A: 0.125 µg/mL

Q: And the “Peptide MIC Alone” value ([11]; S. haemolyticus, Tobramycin section)?
A: 16 µg/mL

Q: What about the FIC ([11]; peptide + Tobramycin, S. aureus) of the same sequence?
A: 0.50

Q: And the FIC ([11]; peptide + Tobramycin, S. haemolyticus)?
A: 0.51

Q: What about the “Peptide MIC” value ([10]; S. aureus) of the same sequence?
A: 32

Q: What does the source list for ILRWPWWPWRRK [MBI 11B7CN]?
A: MIC, Peptide ([1]; A. calcoaceticus AC002, unmodified parent peptide): 2 µg/mL; MIC ([1]; A. calcoaceticus strain AC003): 32 µg/mL; MIC, Peptide ([2]; E. cloacae ECL007, unmodified parent peptide): 128 µg/mL; MIC ([2]; E. cloacae strain ECL0009): 32 µg/mL; MIC, Peptide ([3]; E. faecalis EFS004): 8 µg/mL; MIC, Peptide ([3]; E. faecalis EFS008): 2 µg/mL and 4 µg/mL; MIC ([3]; E. faecalis strain EFS004): 4 µg/mL; MIC ([4]; E. faecium strain EFM001): 4 µg/mL; MIC ([5]; H. influenzae strain HIN002): >128 µg/mL; MIC, Peptide ([6]; K. pneumoniae KP001, unmodified parent peptide): 4 µg/mL and 8 µg/mL; MIC ([6]; K. pneumoniae strain KP0011): 32 µg/mL; MIC, Peptide ([7]; P. aeruginosa PA004, unmodified parent peptide): 128 µg/mL; MIC ([7]; P. aeruginosa strain PA004): 128 µg/mL; MIC, Peptide ([8]; S. aureus SA010): 1 µg/mL; MIC, Peptide ([8]; S. aureus SA011): 4 µg/mL; MIC, Peptide ([8]; S. aureus SA014): 2 µg/mL; MIC, Peptide ([8]; S. aureus SA018): 16 µg/mL; MIC, Peptide ([8]; S. aureus SA025): 1 µg/mL; MIC, Peptide ([8]; S. aureus SA093): 1 µg/mL; MIC ([8]; S. aureus strain SA009): 2 µg/mL; MIC ([9]; S. pneumoniae strain SBSPN3): >128 µg/mL; Peptide MIC + Ceftriaxone ([11]; P. aeruginosa): 64 µg/mL; Peptide MIC Alone ([11]; P. aeruginosa, Ceftriaxone section): 128 µg/mL; Peptide MIC + Piperacillin ([11]; S. aureus MRSA): 2 µg/mL; Peptide MIC Alone ([11]; S. aureus MRSA, Piperacillin section): 4 µg/mL; Peptide MIC Alone ([11]; S. maltophilia, Ceftriaxone section): 32 µg/mL; FIC ([11]; peptide + Ceftriaxone, P. aeruginosa): 0.50; FIC ([11]; peptide + Piperacillin, S. aureus MRSA): 0.50; Ceftriaxone MIC + Peptide ([10]; A. baumannii ABI002): 8 µg/mL; Peptide MIC + Ceftriaxone ([10]; A. baumannii ABI002): 8 µg/mL; Peptide MIC Alone ([10]; A. baumannii ABI002, Ceftriaxone section): 32 µg/mL; Ceftriaxone MIC + Peptide ([10]; A. baumannii ABI005): 8 µg/mL; Peptide MIC + Ceftriaxone ([10]; A. baumannii ABI005): 1 µg/mL; Peptide MIC Alone ([10]; A. baumannii ABI005, Ceftriaxone section): 16 µg/mL; Peptide MIC + Piperacillin ([10]; H. influenzae 1): 1 µg/mL; Piperacillin MIC + Peptide ([10]; H. influenzae 1): 8 µg/mL; Peptide MIC Alone ([10]; H. influenzae 1, Piperacillin section): >128 µg/mL; Peptide MIC + Piperacillin ([10]; S. maltophilia 2): 8 µg/mL; Piperacillin MIC + Peptide ([10]; S. maltophilia 2): 16 µg/mL; Peptide MIC Alone [10, 12]: 128 µg/mL; Peptide MIC + Piperacillin ([10]; S. marcescens 1): 4 µg/mL; Piperacillin MIC + Peptide ([10]; S. marcescens 1): 8 µg/mL; Peptide MIC Alone ([10]; S. marcescens 1, Piperacillin section): >128 µg/mL; FIC ([10]; peptide + Ceftriaxone, A. baumannii ABI002): 0.50; FIC ([10]; peptide + Ceftriaxone, A. baumannii ABI005): 0.56; FIC ([10]; peptide + Piperacillin, H. influenzae 1): 0.13; FIC [10, 13]: 1.00; FIC ([10]; peptide + Piperacillin, S. marcescens 1): 0.27

— patent US20020035061A1, “COMPOSITIONS AND METHODS FOR TREATING INFECTIONS USING CATIONIC PEPTIDES ALONE OR IN COMBINATION WITH ANTIBIOTICS” (priority 1996, published 2002)
